Here are results for four sequences from patent US8354106B2, “Antibodies against HMGB1 and fragments thereof” (The Feinstein Institute for Medical Research, priority 2005, dated 2013).

Where no end group is shown, it is not given here. The star is where a group is joined. Biotin = O=C1N[C@H]2[C@H](CS[C@H]2CCCCC(=O)*)N1

The subject of assay [1] is murine bone marrow-derived dendritic cells (BM-DCs). In words: Cytokine/chemokine secretion by murine bone marrow-derived dendritic cells (ELISA). It is filed as cell-based, mouse. The arrangement: key to TNFα secretion / IL-18 secretion / IL-8 secretion / IL-10 secretion / IL-2 secretion / IL-1β secretion / IL-5 secretion / IL-6 secretion / IL-12 secretion: “+” indicates an increase; “−” indicates no change relative to untreated cells (medium). To be noted: for secretion of IL-1β: FIG. 2A; for secretion of IL-2: FIG. 2C; for secretion of IL-5: FIG. 2E; for secretion of IL-12 (p70): FIGS. 2B, 2H. The method, then: Bone marrow-derived DCs (BM-DCs) were generated using modifications of the original method described by Inaba, et al. (J. Exp. Med. 1 76:1693-1702 (1992)). In brief, bone marrow suspensions were incubated with red cell lysis buffer (PUREGENE™ RBC Lysis Solution, Gentra Systems, Minneapolis, Minn.) to remove red blood cells. After washing in media, lymphocytes and Ia-positive cells were killed with a cocktail of monoclonal antibodies (mAbs) and rabbit complement for 60 min at 37° C. The mAbs that were used were GK1.5 anti-CD4, TIB211 anti-CD8, TIB 120 anti-Ia, and TIB 146 anti B220 (these mAbs were kindly provided by Dr. Ralph Steinman). The cells were subsequently cultured in media containing 5% FCS and 10 ng/ml recombinant mouse GM-CSF (R&D Systems, Minneapolis, Minn.) for 7 days. For some experiments, the cells were further purified at day 7 using CD11c^+-microbeads (Miltenyi Biotech., Auburn, Calif.), according to the manufacturer's instructions.
(§1) Recombinant HMGB1-B box domain (HMGB1-Bx) was expressed in Escherichia coli and purified as described by Li, et al. (Mol. Med. 9:37-45; J. Immunol. Methods 289:211-223 (2004)). Purified HMGB1-Bx contained trace amounts of LPS (19 pg LPS/μg HMGB1-Bx) as measured by the chromogenic Limulus amebocyte lysate assay (BioWhittacker Inc, Walkersville, Md.). All experiments using HMGB1-Bx, as well as the HMGB1 peptides, were performed in the presence of polymyxin B (200 U/ml) to neutralize the amount of contaminating LPS in the HMGB1-Bx and peptide preparations. We have previously shown that the DC stimulatory capacity of HMGB1-Bx requires an intact tertiary structure and is not due to contaminating amounts of LPS, as trypsinization abolished HMGB1-Bx activity (Messmer, et al., J. Immunol. 173: 307-313 (2004); the entire teachings of which are incorporated herein by reference).
(§2) Secreted cytokine/chemokine levels were measured by ELISA (Pierce Boston Technology Center, SearchLight™ Proteome Arrays Multiplex Sample Testing Services, Woburn, Mass.) 48 h after addition of the various peptides. Polymyxin B (200 U/ml) was added to all cultures, except those containing LPS, before the stimuli were added. Immature monocyte-derived human dendritic cells (DCs) and immature bone-marrow derived murine dendritic cells (BM-DCs) were cultured either in the presence of HMGB1 peptides (200 μg/ml), whose sequences map to different regions of the HMGB1 protein (see Table 1), the entire HMGB1 B-box domain (HMGB1-Bx) (50 μg/ml), or LPS (100 ng/ml). Untreated cells (medium) were tested as a control. Each peptide was named according to the corresponding position of its first amino acid within the full-length HMGB1 sequence. All peptides were N-terminally biotinylated except “Hp-106 (non bio)”.
A general note: In an ELISA, binding on a coated surface is turned into a signal by an enzyme label.

For assay [2], the system named is human immature monocyte-derived dendritic cells (DCs). In words: Cytokine/chemokine secretion by human immature monocyte-derived dendritic cells (ELISA). Set-up: key to TNFα secretion / IL-18 secretion / IL-8 secretion / IL-10 secretion / IL-6 secretion / IL-12 secretion: “+” indicates an increase; “−” indicates no change relative to untreated cells (medium). Particulars: for IL-6 secretion / IL-8 secretion / IL-10 secretion / IL-12 secretion / IL-18 secretion / TNFα secretion: HUMAN DC, ELISA 48 h after exposure, relative to untreated cells; for IL-6 secretion / IL-8 secretion / IL-10 secretion / IL-12 secretion / IL-18 secretion / TNFα secretion / secretion of IL-12 (p70) / secretion of TNF-α / secretion of IL-18 / secretion of IL-8 / secretion of IL-6 by DCs: peptides 200 μg/ml; for IL-6 secretion / IL-8 secretion / IL-10 secretion / IL-12 secretion / IL-18 secretion / TNFα secretion / secretion of IL-18 / secretion of IL-8: HMGB1-Bx 50 μg/ml; for cytokine secretion by human DCs / secretion of IL-12 (p70) / secretion of TNF-α / secretion of IL-18 / secretion of IL-8 / secretion of IL-6 by DCs: human DCs; for secretion of IL-12 (p70): FIG. 1C; for secretion of IL-12 (p70) / secretion of TNF-α / secretion of IL-18 / secretion of IL-8 / secretion of IL-6 by DCs: 48 h; for secretion of TNF-α: FIG. 1D; for secretion of IL-18: FIG. 1E; for secretion of IL-8: FIG. 1F; for secretion of IL-6 by DCs: FIGS. 1A, 1B. Type of assay: cell-based. The method, then: Peripheral blood mononuclear cells (PBMCs) were isolated from the blood of normal volunteers (Long Island Blood Services, Melville, N.Y.) over a Ficoll-Hypaque (Amersham Biosciences, Uppsala, Sweden) density gradient. CD14^+ monocytes were isolated from PBMCs by positive selection using anti-CD14 beads (Miltenyi Biotech., Auburn, Calif.), following the manufacturer's instructions. To generate DCs, CD14^+ cells were cultured in RPMI 1640 medium supplemented with 2 mM L-glutamine (GIBCO-BRL Life Technologies, Grand Island, N.Y.), 50 μM 2-mercaptoethanol (Sigma, St. Louis, Mo.), 10 mM HEPES (GIBCO-BRL), penicillin (100 U/ml), streptomycin (100 μg/ml) (GIBCO-BRL), and 5% human AB serum (Gemini Bio-Products, Woodland, Calif.). Cultures were maintained for 7 days in 6-well trays (3×10^6 cells/well) supplemented with 1000 U GM-CSF per ml (Immunex, Seattle, Wash.) and 200 U IL-4 per ml (R&D Systems, Minneapolis, Minn.) at days 0, 2, 4 and 6.
as §1, §2

Assay [3] deals with allogeneic T cells co-cultured with BM-DCs. In words: Functional maturation of BM-DCs: allogeneic T cell proliferation in mixed lymphocyte reaction (3H-thymidine). Type of assay: cell-based, mouse. Particulars: BM-DCs from C57/BL6 mice exposed 48 h; peptide 200 μg/ml, HMGB1-Bx 50 μg/ml; DC:T cell ratio 1:120, 5 days; FIG. 4A. The procedure:
Immature BM-DCs that were generated from C57/BL6 mice (FIG. 4A) or Balb/c mice (FIG. 4B) were incubated for 48 h with either HMGB1-Bx (50 μg/ml), a particular HMGB1 peptide (200 μg/ml), LPS (100 ng/ml) or were left untreated (medium). T cells were isolated by negative selection using the mouse SpinSep antibody cocktail from StemCell Technologies (Vancouver, Calif.), according to the manufacturer's instructions. The cell purity of the isolated T cells was routinely ˜99% pure. In order to assess levels of T cell activation and proliferation, cells were plated at 10^5 cells per well in a round-bottomed 96-well tray at a DC:T cell ratio of 1:120 for 5 days in the medium described above. The microcultures were pulsed with (^3H)-thymidine ([…]) for the final 8 h of culture. Cell cultures were harvested onto glass fiber filters with an automated multiple sample harvester and the amount of isotope incorporation was determined by liquid scintillation β-emission. Responses are reported as mean cpm of thymidine incorporation by triplicate cultures (±SEM).

Where [4] appears, read: MURINE DC, ELISA 48 h after exposure, peptides 200 μg/ml, HMGB1-Bx 50 μg/ml, relative to untreated cells.
Where [5] appears, read: murine BM-DCs, peptides 200 μg/ml, HMGB1-Bx 50 μg/ml, 48 h.

“HPDASVNFSEFSKKCSER (Biotin-HPDASVNFSEFSKKCSER; listed as Homo sapiens) [Hp-31]”: in assay [1] (setting [4]), the IL-1β secretion entry is given as “+”, the IL-2 secretion result is reported as “+”, the IL-5 secretion result is listed as “+” and the IL-6 secretion result is given as “−”. For the same sequence, in assay [1] (setting [4]), the IL-10 secretion result is on record as “−” and the IL-12 secretion entry is listed as “+”. Moreover, in assay [1] (murine BM-DCs), the “cytokine secretion by murine BM-DCs” value was “induced cytokine secretion by murine BM-DCs”, the “secretion of IL-6” value was “not” and the “secretion of IL-10” value is “not”. Further, in assay [1] (setting [5]), the “secretion of IL-1β” value is reported as “enhanced the production”, the “secretion of IL-2” value is recorded as “enhanced the production”, the “secretion of IL-5” value was “enhanced the production” and the “secretion of IL-12 (p70)” value is recorded as “enhanced the production”. Also, in assay [2], the IL-6 secretion result is recorded as “+”, the IL-8 secretion entry is listed as “−”, the IL-10 secretion entry is “−” and the IL-12 secretion entry is “+”. In assay [2], the IL-18 secretion result is given as “+”, the TNFα secretion entry is reported as “+”, the “cytokine secretion by human DCs” value was “induced cytokine secretion by human DCs” and the “secretion of IL-12 (p70)” value was “induced secretion”. Also, in assay [2], the “secretion of TNF-α” value is recorded as “induced secretion”, the “secretion of IL-18” value is given as “induced secretion”, the “secretion of IL-8” value was “did not induce secretion” and the “secretion of IL-6 by DCs” value is on record as “induced secretion”.

For the sequence “SERWKTMSAKEKGKFEDM (Biotin-SERWKTMSAKEKGKFEDM; listed as Homo sapiens) [Hp-46]”, in assay [3], the “proliferation of resting allogeneic T cells (3H thymidine incorporation)” value is recorded as “did not show enhanced T cell stimulatory activity”. Further, the “secretion of IL-6 by DCs” value in assay [2] was “did not induce IL-6 secretion”.

Turning to “CSEYRPKIKGEHPGLSIG [Hp-106 (non bio), Hp-106 peptide that was not biotinylated at its N-terminus]”, in assay [1] (setting [5]), the “secretion of IL-12 (p70)” value is listed as “did not enhance IL-12 secretion”. Besides, the “secretion of IL-6 by DCs” value in assay [2] was “failed to stimulate IL-6 secretion”.

With “DPNAPKRPPSAFFLFCSE (Biotin-DPNAPKRPPSAFFLFCSE; listed as Homo sapiens) [Hp-91]”, in assay [1] (setting [4]), the IL-1β secretion result was “+”, the IL-2 secretion entry is recorded as “+”, the IL-5 secretion entry was “+” and the IL-6 secretion result was “−”. Also, in assay [1] (setting [4]), the IL-8 secretion result is listed as “−”, the IL-10 secretion entry is recorded as “−”, the IL-12 secretion entry is on record as “+” and the IL-18 secretion entry is recorded as “−”. Further, the TNFα secretion entry in assay [1] (setting [4]) is given as “−”. Also, the “cytokine secretion by murine BM-DCs” value in assay [1] (murine BM-DCs) is reported as “induced cytokine secretion by murine BM-DCs”. For the same sequence, in assay [1] (setting [5]), the “secretion of IL-1β” value was “increased production”, the “secretion of IL-2” value is given as “increased production” and the “secretion of IL-5” value is on record as “increased production”. Besides, the “secretion of IL-8” value in assay [1] (murine BM-DCs, FIG. 2D, peptides 200 μg/ml, HMGB1-Bx 50 μg/ml, 48 h) is “not”. Moreover, the “secretion of IL-18” value in assay [1] (murine BM-DCs, FIG. 2F, peptides 200 μg/ml, HMGB1-Bx 50 μg/ml, 48 h) is “not”. For the same sequence, the “secretion of TNF-α” value in assay [1] (murine BM-DCs, FIG. 2G, peptides 200 μg/ml, HMGB1-Bx 50 μg/ml, 48 h) is given as “not”. In addition, in assay [2], the IL-6 secretion entry is on record as “+”, the IL-8 secretion entry is given as “−”, the IL-10 secretion entry is on record as “−” and the IL-12 secretion result was “+”. Further, in assay [2], the IL-18 secretion result is recorded as “+”, the TNFα secretion entry is given as “+”, the “cytokine secretion by human DCs” value is given as “induced cytokine secretion by human DCs” and the “secretion of IL-12 (p70)” value is “induced secretion”. In assay [2], the “secretion of TNF-α” value is given as “induced secretion”, the “secretion of IL-18” value was “induced secretion”, the “secretion of IL-8” value is “did not induce secretion” and the “secretion of IL-6 by DCs” value is reported as “enhanced IL-6 secretion”.
